# In publication PMC11145269 (Proceedings of the National Academy of Sciences of the …, 2024):
# Like-named read-outs stand apart in the source and are kept apart here.
# Legend:
# Test in all cases: two-electrode voltage clamp, X. laevis oocytes
# Format in all cases: cell-based
# [1] = target: T1, NALCN WT channel complex (+UNC79, UNC80, and FAM155A) (Homo sapiens, UniProt Q8IZF0, L588A/M1145A/W311A/Y1436A)
# T1 construct: codon-optimised human cDNAs in modified pcDNA3.1(+); four mRNAs 1:1:1:1 co-injected in Xenopus laevis oocytes; 7SX3 is the human channelosome structure used for modelling; with Protein unc-79 homolog; Protein unc-80 homolog; NALCN channel auxiliary factor 1
# [2] = target: T2, NALCN WT channel complex (+UNC79, UNC80, and FAM155A) (Homo sapiens, UniProt Q8IZF0)
# T2 construct: codon-optimised human cDNAs in modified pcDNA3.1(+); four mRNAs 1:1:1:1 co-injected in Xenopus laevis oocytes; 7SX3 is the human channelosome structure used for modelling; with Protein unc-79 homolog; Protein unc-80 homolog; NALCN channel auxiliary factor 1
# [3] = target: T2, NALCN WT channel complex (+UNC79, UNC80, and FAM155A); settings: buffer same
# [4] = target: T2, NALCN WT channel complex (+UNC79, UNC80, and FAM155A); settings: buffer same; remark: listed apart in the source
# [5] = target: T2, NALCN WT channel complex (+UNC79, UNC80, and FAM155A); settings: inhibition of outward and inward currents, E/Z isomer mixture, buffer same
# [6] = target: T3, NALCN WT channel complex (+UNC79, UNC80, and FAM155A) (Homo sapiens, UniProt Q8IZF0, M1145A); settings: read-out: % inhibition at 300 μM (-100 mV)
# T3 construct: codon-optimised human cDNAs in modified pcDNA3.1(+); four mRNAs 1:1:1:1 co-injected in Xenopus laevis oocytes; 7SX3 is the human channelosome structure used for modelling; with Protein unc-79 homolog; Protein unc-80 homolog; NALCN channel auxiliary factor 1
# [7] = read-out: % inhibition at 1 mM (-100 mV)
# [8] = outward inhibited more than inward current
# [9] = outward current inhibited, inward potentiated
# [10] = read-out: % inhibition at 1 mM (+80 mV)
compound,measurement,setting,value
"NCCOB(c1ccccc1)c1ccccc1 [2-APB, 2-aminoethoxydiphenyl borate]",inhibition at 1000 µM,[1]; [7],32.9 ± 12.9%
same,inhibition at 1000 µM,[2]; [7],70.2 ± 8.2%
OCCOCCN1CCN(C(c2ccccc2)c2ccc(Cl)cc2)CC1 (centres unmarked) [hydroxyzine],% inhibition at 1 mM,[3]; [8],"three (hydroxyzine, promethazine, and citalopram) had a stronger inhibitory effect on the outward"
O=C(O)COCCN1CCN(C(c2ccccc2)c2ccc(Cl)cc2)CC1 (centres unmarked) [cetirizine],% inhibition at 1 mM,[3]; inhibition of outward and inward currents,two (cetirizine and (E/Z)-endoxifen) inhibited both outward and inward currents
COc1ccc([C@@H]2Sc3ccccc3N(CCN(C)C)C(=O)[C@@H]2OC(C)=O)cc1 [diltiazem],% inhibition at 300 μM,[4]; [9],"three inhibited the outward and potentiated the inward currents (quinidine, diltiazem, and propafenone)"
CCC(=C(c1ccc(O)cc1)c1ccc(OCCNC)cc1)c1ccccc1 (mixture of isomers) [(E/Z)-endoxifen],% inhibition at 100 μM,[5],two (cetirizine and (E/Z)-endoxifen) inhibited both outward and inward currents
CN(C)CCCC1(c2ccc(F)cc2)OCc2cc(C#N)ccc21 (centres unmarked) [citalopram],% inhibition at 1 mM,[3]; [8],"three (hydroxyzine, promethazine, and citalopram) had a stronger inhibitory effect on the outward"
COc1ccccc1CN[C@H]1C2CCN(CC2)[C@H]1C(c1ccccc1)c1ccccc1 [CP96345],% inhibition at 300 μM,[4]; inhibition of outward current,two selectively inhibited the outward (CP96345) or inward (lamotrigine) currents
CC(CN1c2ccccc2Sc2ccccc21)N(C)C (centres unmarked) [promethazine],% inhibition at 1 mM,[3]; [8],"three (hydroxyzine, promethazine, and citalopram) had a stronger inhibitory effect on the outward"
CCCNCC(O)COc1ccccc1C(=O)CCc1ccccc1 (centres unmarked) [propafenone],% inhibition at 300 μM,[4]; [9],"three inhibited the outward and potentiated the inward currents (quinidine, diltiazem, and propafenone)"
C=C[C@H]1CN2CC[C@H]1C[C@@H]2[C@@H](O)c1ccnc2ccc(OC)cc12 [quinidine],% inhibition at 300 μM,[4]; [9],"three inhibited the outward and potentiated the inward currents (quinidine, diltiazem, and propafenone)"
"c1ccc(B(OB(c2ccccc2)c2ccccc2)c2ccccc2)cc1 [DPBA, diphenylborinic anhydride]",inhibition at 1000 µM,[2]; [10],66.9 ± 4%
Nc1nnc(-c2cccc(Cl)c2Cl)c(N)n1 [lamotrigine],% inhibition at 300 μM,[4]; inhibition of inward current,two selectively inhibited the outward (CP96345) or inward (lamotrigine) currents
"CN(C)CCOC(c1ccccc1)c1ccccc1 [DPH, diphenhydramine]",inhibition at 1000 µM,[2]; [10],60.3 ± 4.3%
CC(C)n1c(/C=C/C(O)CC(O)CC(=O)O)c(-c2ccc(F)cc2)c2ccccc21 (centres unmarked) [fluvastatin],% inhibition at 1 mM,[3]; inhibition of inward current only,"one (fluvastatin) had no effect on the outward current, but inhibited the inward current efficaciously"
O=C1NC(=O)C(c2ccccc2)(c2ccccc2)N1 [phenytoin],inhibition at 300 µM,[1]; read-out: % inhibition at 300 μM (-100 mV),64.8 ± 6.7%
same,inhibition at 300 µM,[6],31 ± 9.2%
